In PubChem BioAssay AID328 (DTP/NCI, 2004):
Several values for one entry are separate records, joined by “and”; a condition that tells them apart may be missing. Equal entries are not always repeated. Inconclusive results and toxic doses are left out. Rule for the calls: active = survival T/C of 150% or more; inactive = T/C below 125% in these data.

Tested on: BDF1 mice, P388 leukemia ip, median survival T/C
Test: NCI In Vivo Anticancer Drug Screen. Data for tumor model P388 Leukemia (intraperitoneal) in B6D2F1 (BDF1) mice
Conditions: endpoint: median survival time, higher = longer survival
In short: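 Steps: implant the tumour, treat one group with compound and another with vehicle, record survival, then divide treated by control.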

[1] = dose: 100.0 mg/kg/injection, schedule: Q01DX009 (ip), vehicle: saline
[2] = dose: 200.0 mg/kg/injection, schedule: Q01DX009 (ip), vehicle: saline
[3] = dose: 12.5 mg/kg/injection, schedule: Q01DX009 (ip), vehicle: saline
[4] = dose: 25.0 mg/kg/injection, schedule: Q01DX009 (ip), vehicle: saline
[5] = dose: 50.0 mg/kg/injection, schedule: Q01DX009 (ip), vehicle: saline
[6] = dose: 50.0 mg/kg/injection, schedule: Q01DX009 (ip), vehicle: saline with Tween-80
[7] = dose: 100.0 mg/kg/injection, schedule: Q01DX009 (ip), vehicle: saline with Tween-80
[8] = dose: 100.0 mg/kg/injection, schedule: Q04DX003 (ip), vehicle: saline
[9] = dose: 200.0 mg/kg/injection, schedule: Q04DX003 (ip), vehicle: saline
[10] = dose: 12.5 mg/kg/injection, schedule: Q01DX009 (ip), vehicle: saline with Tween-80
[11] = dose: 6.25 mg/kg/injection, schedule: Q01DX009 (ip), vehicle: saline

Measured: T/C

CCCCC(C#N)(C(=O)OCC)C(C)(C)C (stereo not given)
inactive: [1] 109 % of control | [2] 118 % of control | dose: 400.0 mg/kg/injection, schedule: Q01DX009 (ip), vehicle: saline 90 % of control

C=C1C(=O)O[C@@H]2CC(CO)=C([C@@H](C)CCCO)[C@@H](OC(=O)/C(C)=C\C)[C@H]12
inactive: dose: 2.0 mg/kg/injection, schedule: Q01DX009 (ip), vehicle: saline + alcohol 123 % of control | dose: 4.0 mg/kg/injection, schedule: Q01DX009 (ip), vehicle: saline + alcohol 104 % of control | dose: 8.0 mg/kg/injection, schedule: Q01DX009 (ip), vehicle: saline + alcohol 123 % of control | dose: 16.0 mg/kg/injection, schedule: Q01DX009 (ip), vehicle: saline + alcohol 114 % of control

S=C1CCNCC1
inactive: [3] 95 % of control | [4] 86 % of control | [5] 100 % of control

COC(=O)C1C(O)CCC2CN3CCc4c([nH]c5ccccc45)C3CC21 (stereo not given)
inactive: [4] 88 % of control | [6] 105 % of control | [5] 88 % of control | [7] 119 % of control | [1] 110 % of control | [2] 118 % of control

CN(C)C(=O)Nc1ccc(Cc2ccc(NC(=O)N(C)C)cc2)cc1
inactive: [6] 96 % of control | [7] 99 % of control | dose: 200.0 mg/kg/injection, schedule: Q01DX009 (ip), vehicle: saline with Tween-80 108 % of control | dose: 400.0 mg/kg/injection, schedule: Q01DX009 (ip), vehicle: saline with Tween-80 99 % of control

COC1C(OC(=O)/C=C/C=C/C=C/C=C\C(=O)O)CCC2(CO2)C1C1(C)OC1CC=C(C)C (stereo not given)
inactive: dose: 50.0 mg/kg/injection, schedule: Q04DX003 (ip), vehicle: saline 110 % of control | [8] 105 % of control | [9] 110 % of control

O=C(Nc1cccc(C(F)(F)F)c1)Nc1ccc(Oc2ccc(Cl)cc2)cc1S(=O)(=O)O
inactive: dose: 50.0 mg/kg/injection, schedule: Q04DX003 (ip), vehicle: saline sonified 104 % of control | dose: 100.0 mg/kg/injection, schedule: Q04DX003 (ip), vehicle: saline sonified 100 % of control

FC(F)(F)c1nc2nc(Cl)c(Cl)nc2s1
inactive: dose: 0.78 mg/kg/injection, schedule: Q04DX003 (ip), vehicle: other 104 % of control | dose: 1.56 mg/kg/injection, schedule: Q01DX009 (ip), vehicle: other 99 % of control | dose: 1.56 mg/kg/injection, schedule: Q04DX003 (ip), vehicle: other 117 % of control | dose: 3.12 mg/kg/injection, schedule: Q01DX009 (ip), vehicle: other 90 % of control | dose: 3.12 mg/kg/injection, schedule: Q04DX003 (ip), vehicle: other 98 % of control | dose: 6.25 mg/kg/injection, schedule: Q01DX009 (ip), vehicle: other 90 % of control | dose: 6.25 mg/kg/injection, schedule: Q04DX003 (ip), vehicle: other 121 % of control | dose: 12.5 mg/kg/injection, schedule: Q01DX009 (ip), vehicle: other 99 % of control | dose: 12.5 mg/kg/injection, schedule: Q04DX003 (ip), vehicle: other 111 % of control

NC(=O)C1(NC2CCCCC2)CCN(Cc2ccccc2)CC1
inactive: dose: 50.0 mg/kg/injection, schedule: Q01DX009 (ip), vehicle: gum acacia 107 % of control | dose: 50.0 mg/kg/injection, schedule: Q04DX003 (ip), vehicle: gum acacia 100 % of control | dose: 100.0 mg/kg/injection, schedule: Q01DX009 (ip), vehicle: gum acacia 107 % of control | dose: 100.0 mg/kg/injection, schedule: Q04DX003 (ip), vehicle: gum acacia 91 % of control

CO[C@@H]1[C@H](O)CC[C@]2(CO2)[C@H]1[C@@]1(C)O[C@@H]1CC=C(C)C
inactive: dose: 3.13 mg/kg/injection, schedule: Q01DX009 (ip), vehicle: saline with Tween-80 100 % of control | dose: 6.25 mg/kg/injection, schedule: Q01DX009 (ip), vehicle: saline with Tween-80 97 % of control | [10] 106 % of control | [3] 98 % of control | dose: 37.5 mg/kg/injection, schedule: Q01DX009 (ip), vehicle: saline with Tween-80 100 % of control

CN(N)c1cc(=O)n(C)c(=O)n1C
inactive: [8] 110 % of control | [9] 103 % of control | dose: 400.0 mg/kg/injection, schedule: Q04DX003 (ip), vehicle: saline 101 % of control

Cc1cc[n+](CCc2ccccc2)cc1
inactive: [11] 91 % of control | [3] 87 % of control | dose: 18.75 mg/kg/injection, schedule: Q01DX010 (ip), vehicle: acetone 91 % of control | dose: 37.5 mg/kg/injection, schedule: Q01DX010 (ip), vehicle: acetone 87 % of control | [5] 112 % of control | dose: 75.0 mg/kg/injection, schedule: Q01DX010 (ip), vehicle: acetone 91 % of control

CCCCCCCCCCC[N+](C)(C)CCCCCC[N+](C)(C)CCCCCCCCCCC
inactive: dose: 1.56 mg/kg/injection, schedule: Q01DX009 (ip), vehicle: saline 90 % of control and 108 % of control | dose: 3.12 mg/kg/injection, schedule: Q01DX009 (ip), vehicle: saline 103 % of control | dose: 3.13 mg/kg/injection, schedule: Q01DX009 (ip), vehicle: saline 102 % of control and 118 % of control | [11] 115 % of control and 124 % of control | [3] 93 % of control and 109 % of control

Cc1ccc(CNc2ccccc2)cc1
inactive: dose: 25.0 mg/kg/injection, schedule: Q04DX003 (ip), vehicle: other 120 % of control | dose: 50.0 mg/kg/injection, schedule: Q04DX003 (ip), vehicle: other 105 % of control | dose: 100.0 mg/kg/injection, schedule: Q04DX003 (ip), vehicle: other 110 % of control

Cc1c(N)cccc1N
inactive: [10] 96 % of control | dose: 25.0 mg/kg/injection, schedule: Q01DX009 (ip), vehicle: saline with Tween-80 123 % of control

CC(=O)Nc1c(Cl)cc2c(c1Cl)Cc1cc(N=Cc3ccc4c(c3)OCO4)ccc1-2
inactive: dose: 25.0 mg/kg/injection, schedule: Q01DX009 (ip), vehicle: Klucel (hydroxypropylcellulose) (HPC) 90 % of control | dose: 50.0 mg/kg/injection, schedule: Q01DX009 (ip), vehicle: Klucel (hydroxypropylcellulose) (HPC) 90 % of control | dose: 100.0 mg/kg/injection, schedule: Q01DX009 (ip), vehicle: Klucel (hydroxypropylcellulose) (HPC) 86 % of control
